Measured values from publication PMC8834506, “Optimization of Thymidine Kinase-Based Safety Switch for Neural Cell Therapy” (Cells, 2022).
Entries after “also recorded” stand apart in the source; their conditions may differ. Where two headings read alike, the source gives them in different places.

Legend:
[1] = test system: hESC (HS420) expressing Ki67-SR39h; test: ATP-based cell survival assay, nucleoside-induced cell death; conditions: for EC50: Homo sapiens, 96 h
[2] = test system: sister chromatid exchange; parameters: method as in PMID 10719044; conditions: at concentrations far below those impairing the proliferative activity; cited from earlier work
[3] = test system: Ki67-SR39h-expressing hESC transplanted into the striatum; test: In vivo prevention of tumor formation after striatal transplantation; parameters: species or system NOD/SCID mice; conditions: 40 mg/kg/day i.p., 47 days post-transplantation
Method: (§1) Given the encouraging in vitro results, we next investigated whether this newly developed safety switch system (SR39h and different nucleoside analogs) could prevent tumor formation in vivo. For this purpose, 20,000 undifferentiated Ki67-SR39h-expressing hESC were transplanted into the striatum of NOD/SCID mice. […] A group of control mice received only a NaCl solution. […] Human cytoplasmic marker (HCM) staining confirmed the human (i.e., hESC-derived) origin of these tumors. Tumors cells were predominantly Ki67 positive with a rosette organization as frequently found in tumors of the central nervous system.
Figure 7 in vivo validation of suicide gene and inducers. (A) Schematic diagram of the experimental setup to detect tumor elimination in vivo. NOD/SCID mice were transplanted with 20,000 SR39h-expressing hESC through stereotactic injection into the striatum. 48 h post transplantation, mice were intraperitoneally injected with the respective nucleoside (40 mg/kg) for five consecutive days a week during a two-week period. Control mice were treated with a NaCl solution. Mice were sacrificed 47 days post transplantation. (B) Cresyl violet staining of a brain section. […] (C) Immunostaining of brain coronal section (sections from ACV-, PCV-, and GCV-treated mice are shown in the upper, middle, and lower row, respectively). Staining with the proliferation marker Ki67 and with the human cytoplasmic marker (HCM) are shown in red and green, respectively. Nuclei were counterstained with DAPI (blue). White arrows show residual proliferative cells form the graft. A merge of the three staining is shown in the right column. Each experimental group consisted of five mice.
Single cell transplant: Undifferentiated HS420 (expressing TK variants) were detached by TrypLE and concentrated at 20,000 cells/μL in Stemflex. 20,000 cells (1 μL) were injected into the right striatum using a 26-G Hamilton syringe (Hamilton, BGB Analytik AG, Boeckten, Switzerland). Injection coordinates for striatum were: bregma = 0.6 mm, mediolateral = 2 mm, dorsoventral = 3 mm.
Thirty days after termination of treatment with the respective antiviral nucleoside analogs or control (NaCl), mice were sacrificed by intracardiac perfusion of paraformaldehyde 4% in PBS. Brains were removed from the skull and post-fixed in the same fixative overnight.
Paraffin embedded brains were sectioned (coronal sections 7 µm thick) and processed for hematoxylin and eosin or cresyl violet staining stain aiming morphological assessment of the graft. Sections were mounted in Eukitt (Kindler GmbH, Germany) and observed under microscope (see below)
The primary antibody diluted in PBS with 0.3% Triton was incubated at 4 °C overnight in agitation. […]

non-transduced hESC = type: cell-based; conditions: 96 h nucleoside exposure; up to 100 µM
Method: (§2) Cells were exposed to 100 µM of the respective nucleoside for 48 h. DNA damage was monitored using γ-H2A.X marker in yellow and nuclei were counterstained with Hoechst. The white box in the first column indicates the area of the zoom for the hESC colonies.
(§3) Plates were washed twice with DMEM-F12 (Gibco, ThermoFisher; Geneva, Switzerland), then coated with Matrigel (Corning, Lonay, Switzerland) 1/100 in DMEM-F12 and incubate 2 h at 37°. Cells were detached using Accutase and seeded at 2000 cells/well in serum-free culture medium containing 10 µM of ROCK inhibitor. At 24 h, the cell culture was continued without ROCK inhibitor. […] Drugs were prepared by serial dilution (two-fold) in 100% DMSO. At 48 h after seeding, cells were exposed to antiviral drugs for 96 h. For EC50 assays, the medium was changed daily for 4 days, then cell viability was assessed using an ATP-based assay. EC50 values for each construct were calculated using a four parameters equation (GraphPad, Prism8, San Diego, CA, USA). The same procedure was used for the cell death kinetic determinations except the treatment duration. Luminescence was measured using Spectra L384/L96 (0.2 sec exposure, Molecular devices, Biberach an der Riß, Germany).

host cell DNA = conditions: cited from earlier work
[4] = test system: ReNcell wt (non-transduced proliferating ReNcells); test: cells; type: cell-based; conditions: Homo sapiens; 96 h GCV exposure; read-out: EC50 of GCV, killing of non-transduced proliferating ReNcells
Method: as §2, §3

[5] = type: in vivo, NOD/SCID mice; conditions: 40 mg/kg/day i.p.; weighed daily during treatment
Method: as §1
Supplementary Figure S3: Mice weight
Mice were weighed daily during guanosine analogs treatment to identify differences in weight gain/loss between treated groups. No differences were observed between treatment groups.
Supplementary Figure S4: in vivo validation of suicide gene. Coronal section of NOD/SCID mice 47 days after injection of hESC expressing the SR39h thymidine kinase variant. Mice were treated for 2x5 days with the respective nucleoside analogs (see Methods). Upper lane: ACV; middle lane: PCV; lower lane: GCV. Sections were colored with cresyl violet and dark purple staining reflects a high density of nuclei. Scale bar 1000 µm. […]

Structure (SMILES): Nc1nc(O)c2ncn(COC(CO)CO)c2n1 [GCV, ganciclovir]
- Cell death induction in SR39h-expressing cells (in words) ([1]; 96 h nucleoside exposure): strong suicide inducers
- Fold more performant than SR39 ([1]; GCV EC50, SR39h vs SR39): 10 fold
- EC50 ([1]; read-out: EC50 (cell survival), 96 h nucleoside exposure, SR39h under Ki67 promoter): 0.2 nM
- EC50 ([1]; read-out: GCV EC50 in M, 96 h GCV exposure, Ki67-SR39h): 0.19 nM
- Induction of sister chromatid exchange [2]: potent inducer of sister chromatid exchange
- Tumor formation ([3]; five consecutive days a week for two weeks, from 2 days after transplantation, five mice per group): prevented tumor formation; also recorded: no major tumors; also recorded: impressive anti-tumor activities
- Mice with a small nuclei-rich region at the graft site ([3]; cresyl violet staining): did not observe any structures resembling tumors
- Toxicity in non-transduced hESC (non-transduced hESC): low micromolar range
- Fragmentation of host cell DNA (host cell DNA): induce fragmentation of host cell DNA
- EC50 [4]: 12000 nM
- Differences in weight among groups [5]: no significant differences in weight
